Data taken from patent US10851067B2, “Kv7 channel activators compositions and methods of use” (Knopp Biosciences LLC, priority 2018, dated 2020).

Target: Kv7.2/7.3 (Homo sapiens, UniProt O43525+O43526)
Test: Kv7.2/7.3 Activation Assay, QPatch single concentration screen
Assay type: cell-based
Parameters: host or cells: HEK cells, tetracycline-inducible expression; key: 1.2-2.9 (+); 3-3.9 (++); >4 (+++) fold increase over baseline; O represents open channel at holding potential
Settings: Kv7.2/Kv7.3 co-expressing HEK cells, compound concentration 3 μM, steady-state current at end of 2 s pulse to −30 mV
Protocol: Kv7.2/7.3 Activation Assay
The ability of compounds to potentiate K-currents in Kv7.2/7.3 containing HEK cells was assessed using planar patch-clamp on the QPatch automated screening platform.
The hKv7.2/7.3 cell line was obtained from Chantest (Cleveland, Ohio 44128) cat. #CT6147. These HEK cells will express the Kv7.2/7.3 ion channels when induced.
Cells were maintained in a media containing DMEM/F12; 50/50 (GIBCO cat. #11330), 10% Fetal Bovine Serum (FBS) (GIBCO cat. #26140), 100 units/mL Penicillin-Streptomycin (GIBCO cat. #15140), 0.005 mg/mL Blasticidin (INVIVOGEN cat. #ant-b1-1), 0.5 mg/mL Geneticin (GIBCO cat. #10131), 0.1 mg/mL Zeocin (GIBCO cat. #R25001). Cells used in the electrophysiology assay were maintained in a media without Blasticidin, Geneticin and Zeocin for 2 days and channel expression was induced by adding tetracycline (BIOLINE cat. #BIO-87030) at a final concentration of 1 mg/mL. Cells were grown in T-175 flask to ˜75% confluency. Currents were recorded 24 hours after channel induction.
Test compounds were prepared by performing serial dilutions on a Biomek NX^P (BECKMAN COULTER). Final dilutions were made in external recording solution with a final DMSO concentration of 0.1% DMSO. For single concentration screens each plate had 10 μM retigabine as a positive control and 0.1% DMSO as a negative control.
On the day of the experiment cells were washed with Hank's Balanced Salt Solution (HBBS) (GIBCO cat. #14175) and harvested with Tryple (GIBCO cat. #12604). Cells were then centrifuged at 2000 rpm for 5 minutes and resuspended in CHO-S-SFM (GIBCO cat. #12052) at ˜3×10^6 cells/mL. Cells were stirred for 30 minutes before experiments were started. External recording solution contained (in mM): NaCl (145), KCl (4), CaCl2 (2), MgCl2 (1), HEPES (10) and Glucose (10); pH was adjusted to 7.4 with NaOH and the osmolarity was adjusted to 300-305 mOsM with sucrose if necessary. Internal solution contained (in mM): KCl (125), KF (10), EGTA (5), Na2ATP (5), MgCl2 (3.2), HEPES (5); pH was adjusted to 7.2 with KOH and the osmolarity was adjusted to 298-302 mOsM with sucrose.
Potassium channel activity was measured on the QPatch HTX (Sophion Bioscience) using QPlates with 48-wells/plate. Each cell was taken as an independent experiment and only one compound was tested per well. Potassium channel activity was elicited by holding at −80 mV and stepping to −30 mV for 2 s followed by a 100 ms pulse to −120 mV.
Single Concentration Screen:
Baseline conditions were obtained by recording 5 sweeps in the external solution only, this was repeated for three applications of the external solution. The effect of test compounds on elicited current was then assessed by recording 5 sweeps in the presence of a 3 μM compound solution. The steady-state current at the end of the 2 s pulse to −30 mV was measured to determine the fold increase from baseline.

Row | SMILES | Kv7.2/7.3 Activity: increase over baseline in current
1 | CC(O)(CC(=O)Nc1nc2ccc(OC(F)F)cc2n1C1CCC1)c1ccccc1 (single isomer, unassigned) [Example 422, N-(1-cyclobutyl-6-(difluoromethoxy)-1H-benzo[d]imidazol-2-yl)-3-hydroxy-3-phenylbutanamide] | + (1.2-2.9 (+))
2 | CC(O)(CC(=O)Nc1nc2ccc(C#N)cc2n1CC1CC1)c1ccccc1 (single isomer, unassigned) [Example 428, N-(6-cyano-1-(cyclopropylmethyl)-1H-benzo[d]imidazol-2-yl)-3-hydroxy-3-phenylbutanamide] | ++ (3-3.9 (++))
3 | CC(O)(CC(=O)Nc1nc2ccc(C#N)cc2n1C1(C)CCC1)c1ccc(F)cc1F (single isomer, unassigned) [Example 430, N-(6-cyano-1-(1-methylcyclobutyl)-1H-benzo[d]imidazol-2-yl)-3-(2,4-difluorophenyl)-3-hydroxybutanamide] | ++ (3-3.9 (++))
4 | CC(O)(CC(=O)Nc1nc2cc(F)cc(C#N)c2n1C1(C)CCC1)c1ccccc1 (single isomer, unassigned) [Example 441, N-(7-cyano-5-fluoro-1-(1-methylcyclobutyl)-1H-benzo[d]imidazol-2-yl)-3-hydroxy-3-phenylbutanamide] | ++ (3-3.9 (++))
5 | COc1cccc2nc(NC(=O)CC(C)(O)c3ccccc3)n(C3CCC3)c12 (single isomer, unassigned) [Example 442, N-(1-cyclobutyl-7-methoxy-1H-benzo[d]imidazol-2-yl)-3-hydroxy-3-phenylbutanamide] | + (1.2-2.9 (+))
6 | CC(C)(O)c1ccc2nc(NC(=O)CC3CC(F)(F)C3(F)F)n(C3CCC3)c2c1 (single isomer, unassigned) [Example 446, N-(1-cyclobutyl-6-(2-hydroxypropan-2-yl)-1H-benzo[d]imidazol-2-yl)-2-(2,2,3,3-tetrafluorocyclobutyl)acetamide] | ++ (3-3.9 (++))
7 | CC(O)(CC(=O)Nc1nc2ccc(C#N)cc2n1C1CCC1)c1ccccc1F (single isomer, unassigned) [Example 452, N-(6-cyano-1-cyclobutyl-1H-benzo[d]imidazol-2-yl)-3-(2-fluorophenyl)-3-hydroxybutanamide] | O
8 | CC(O)(CC(=O)Nc1nc2ccc(C#N)cc2n1C1(C)CCC1)c1ccc(F)cc1F (single isomer, unassigned) [Example 460, N-(6-cyano-1-(1-methylcyclobutyl)-1H-benzo[d]imidazol-2-yl)-3-(2,4-difluorophenyl)-3-hydroxybutanamide] | ++ (3-3.9 (++))
9 | CC(O)(CC(=O)Nc1nc2ccc(OC(F)F)cc2n1C1(C)CCC1)c1ccccc1 (single isomer, unassigned) [Example 463, N-(6-(difluoromethoxy)-1-(1 - methylcyclobutyl)-1H-benzo[d]imidazol-2-yl)-3-hydroxy-3-phenylbutanamide] | + (1.2-2.9 (+))
10 | CC(O)(CC(=O)Nc1nc2cc(F)cc(C#N)c2n1C1(C)CCC1)c1ccccc1 (single isomer, unassigned) [Example 465, N-(7-cyano-5-fluoro-1-(1-methylcyclobutyl)-1H-benzo[d]imidazol-2-yl)-3-hydroxy-3-phenylbutanamide] | ++ (3-3.9 (++))
11 | CC(C)(O)c1cc(F)c2nc(NC(=O)CC3CC(F)(F)C3(F)F)n(C3CCC3)c2c1 (single isomer, unassigned) [Example 466, N-(1-cyclobutyl-4-fluoro-6-(2-hydroxypropan-2-yl)-1H-benzo[d]imidazol-2-yl)-2-(2,2,3,3-tetrafluorocyclobutyl)acetamide] | ++ (3-3.9 (++))
12 | CC(O)(CC(=O)Nc1nc2ccc(C#N)cc2n1C1(C)CCC1)c1c(F)cccc1F (single isomer, unassigned) [Example 467, N-(6-cyano-1-(1-methylcyclobutyl)-1H-benzo[d]imidazol-2-yl)-3-(2,6-difluorophenyl)-3-hydroxybutanamide] | + (1.2-2.9 (+))
13 | CC(O)(CC(=O)Nc1nc2cccc(C#N)c2n1C1(C)CCC1)c1ccccc1 (single isomer, unassigned) [Example 468, N-(7-cyano-1-(1-methylcyclobutyl)-1H-benzo[d]imidazol-2-yl)-3-hydroxy-3-phenylbutanamide] | + (1.2-2.9 (+))
14 | CC1(Cn2c(NC(=O)CC(C)(O)c3ccccc3)nc3ccc(C#N)cc32)CC1 (single isomer, unassigned) [Example 471, N-(6-cyano-1-((1-methylcyclopropyl)methyl)-1H-benzo[d]imidazol-2-yl)-3-hydroxy-3-phenylbutanamide] | + (1.2-2.9 (+))
15 | CC(O)(CC(=O)Nc1nc2cc(F)c(C#N)cc2n1C1(C)CCC1)c1ccccc1F (single isomer, unassigned) [Example 478, N-(6-cyano-5-fluoro-1-(1-methylcyclobutyl)-1H-benzo[d]imidazol-2-yl)-3-(2-fluorophenyl)-3-hydroxybutanamide] | + (1.2-2.9 (+))
16 | CC(O)(CC(=O)Nc1nc2ccc(C#N)cc2n1CC(F)(F)F)c1ccccc1F (single isomer, unassigned) [Example 483, N-(6-cyano-1-(2,2,2-trifluoroethyl)-1H-benzo[d]imidazol-2-yl)-3-(2-fluorophenyl)-3-hydroxybutanamide] | ++ (3-3.9 (++))
17 | CN(C)c1ccc2nc(NC(=O)CC(C)(O)c3ccccc3)n(C3CCC3)c2c1F (single isomer, unassigned) [Example 485, N-(1-cyclobutyl-6-(dimethylamino)-7-fluoro-1H-benzo[d]imidazol-2-yl)-3-hydroxy-3-phenylbutanamide] | +++ (>4 (+++) fold increase over baseline)
18 | CC(C)(C)CC(=O)Nc1nc2c(F)cc(OC(F)F)cc2n1C1CCC1 [Example 331, N-(1-cyclobutyl-6-(difluoromethoxy)-4-fluoro-1H-benzo[d]imidazol-2-yl)-3,3-dimethylbutanamide] | +++ (>4 (+++) fold increase over baseline)
19 | CC(C)(C)CC(=O)Nc1nc2ccc(C(C)(C)O)cc2n1C1CC(F)(F)C1 [Example 332, N-(1-(3,3-difluorocyclobutyl)-6-(2-hydroxypropan-2-yl)-1H-benzo[d]imidazol-2-yl)-3,3-dimethylbutanamide] | + (1.2-2.9 (+))
20 | CC(C)(CC(=O)Nc1nc2ccc(C#N)cc2n1C(C)(C)C(F)(F)F)C1CC1 [Example 333, N-(6-cyano-1-(1,1,1-trifluoro-2-methylpropan-2-yl)-1H-benzo[d]imidazol-2-yl)-3-cyclopropyl-3-methylbutanamide] | ++ (3-3.9 (++))
21 | CC(C)(C)CC(=O)Nc1nc2ccc(OCC(F)(F)F)c(F)c2n1C1CCC1 [Example 334, N-(1-cyclobutyl-7-fluoro-6-(2,2,2-trifluoroethoxy)-1H-benzo[d]imidazol-2-yl)-3,3-dimethylbutanamide] | ++ (3-3.9 (++))
22 | C[C@H](CC(=O)Nc1nc2ccc(C(C)(C)O)cc2n1C1CCC1)c1ccccc1 [Example 336, (R)-N-(1-cyclobutyl-6-(2-hydroxypropan-2-yl)-1H-benzo[d]imidazol-2-yl)-3-phenylbutanamide] | + (1.2-2.9 (+))
23 | CC(C)(C)CC(=O)Nc1nc2ccc(C#N)cc2n1C1(C)CCC1 [Example 337, N-(6-cyano-1-(1-methylcyclobutyl)-1H-benzo[d]imidazol-2-yl)-3,3-dimethylbutanamide] | ++ (3-3.9 (++))
